Where two headings read alike, the source gives them in different places.
Columns and labels:
[1] = system: S. mansoni-infected mouse model; assay: In vivo antischistosomal efficacy in the S. mansoni-infected mouse model; parameters: species or system Schistosoma mansoni; conditions: mice; for Reduction in total worm burden (percentage change from infected control): sacrificed 10 days post-treatment
Method: PZQ was obtained from Egyptian International Pharmaceutical Industries Company (EIPICO) and aminobenzotriazole (ABT) from Fluorochem Ltd.
Male Swiss albino mice (CD-1) obtained from SBSC and weighing 18–20 g were housed under environmentally controlled room temperature of 20–22 °C, 12 h light/dark cycle and 50–60% humidity with food and water ad libitum throughout the acclimatisation and experimental periods. All the animal experiments were conducted in accordance with the Guide for Care and Use of Laboratory Animals and were approved by the Institutional Review Board of Theodor Bilharz Research Institute (TBRI).
Mice were infected with S. mansoni cercariae [provided by Schistosome Biology Supply Center (SBSC)] using body immersion[16] by exposure to 80 ± 10 cercariae/mouse. Infected mice were divided into six groups: groups 1 and 2 were treated the vehicle and the CYP450 inhibitor ABT respectively; groups 3 and 4 were dosed for 5 days with NPD-1246 at 20 and 10 mg/kg, respectively, while group 5 was treated with PZQ at 10 mg/kg/day for 5 days. Group 6 was treated with NPD-1246 combined with PZQ, each at 10 mg/kg/day for 5 days starting from week 7 post-infection. To minimise first-pass elimination, ABT was administered at 100 mg/kg/day for 5 days 2 h prior to each compound administration. NPD-1246 and PZQ were freshly suspended in 2% Cremophore-EL (Sigma-Aldrich). All drug administrations were performed orally.
Ten days post-treatment, all mice were sacrificed and perfused, and the number of worms recovered (worm burden) was quantified and sexed. The number of eggs per gram of liver or intestinal tissue was counted. The percentage of egg developmental stages (oogram pattern) was studied[19] in which eggs at different stages of maturity (from I to IV) were identified and counted. Mature eggs and dead eggs (granular, dark, and semi-transparent) were also counted in three fragments of intestine and the mean number of each stage was calculated.
The percentage reduction of worm or egg burden in each treated group was calculated. […] Results are expressed as mean ± SEM. A two-tailed, unpaired Student’s t-test was used to detect the significance of difference between the means of different groups. Results are considered significant if p value is <0.05.

[2] = Microsomal stability, mouse liver microsomes (S9), Phase-II (UGT enzymes); assay type: in vitro ADME; conditions: 5 µM
Method: (§1) Mouse or human liver microsomes (S9), reduced nicotinamide adenine dinucleotide phosphate (NADPH) generating system solutions and uridine glucuronosyltransferase (UGT) reaction mix (BD Biosciences) were kept at −80 °C. The test compounds and reference compound diclofenac were formulated in DMSO at […]. The assay was carried out based on the BD Biosciences Guidelines for Use (TF000017 Rev1.0) with minor adaptations. The metabolic stability of the compounds was studied through the CYP450 superfamily (Phase-I metabolism) by fortification with NADPH and through UGT enzymes (Phase-II metabolism) by fortification with uridine diphosphate glucuronic acid (UDPGA). For CYP450 and other NADPH dependent enzymes, the compounds were incubated at 5 µM together with 0.5 mg/mL S9 in potassium phosphate buffer in a reaction started by the addition of 1 mM NADP. At defined time points, 20 µL was withdrawn from the reaction mixture and 80 µL cold acetonitrile (ACN) was added to inactivate the enzymes and precipitate the protein. The mixture was vortexed for 30 s and centrifuged at 4 °C for 5 min to collect the supernatant. For UGT enzymes, the compounds were incubated at 5 µM together with 0.5 mg/mL S9 in a reaction started by the addition of 2 mM UDPGA cofactor. The loss of parent compound was determined using liquid chromatography (UPLC) (Waters Aquity^TM) coupled with tandem quadrupole mass spectrometry (MS^2) (Waters Xevo^TM), equipped with an electrospray ionisation (ESI) interface and operated in multiple reaction monitoring (MRM) mode.

[3] = system: Schistosoma mansoni mature worms; parameters: method as in PMID 30669086; conditions: cited from earlier work; for Worm killing (% of total) / Worm killing (female worms) / Worm killing (male worms): day 5, previously reported; for EC50: previously reported
[4] = Microsomal stability, mouse liver microsomes (S9), Phase-I (CYP450-NADPH); assay type: in vitro ADME; conditions: 5 µM
Method: as §1

[5] = system: Schistosoma mansoni worm couples; parameters: method as in PMID 30669086; conditions: previously reported, cited from earlier work
[6] = oral 20 mg/kg/day for 5 days with ABT

SMILES: O=C(C1CCCCC1)N1CC(=O)N2CCc3ccccc3C2C1 (stereo not drawn) [PZQ, praziquantel, reference compound]
- Reduction in intestinal tissue egg load (percentage change from infected control) ([1]; oral 10 mg/kg/day (each) for 5 days with ABT): 70%
- Reduction in total worm burden (percentage change from infected control) ([1]; oral 10 mg/kg/day (each) for 5 days with ABT 100 mg/kg/day): 63%
- Reduction in hepatic tissue egg load (percentage change from infected control) ([1]; oral 10 mg/kg/day (each) for 5 days with ABT, + = increase): 38%

SMILES: O=c1c2ccccc2n(Cc2ccc(C(F)(F)F)cc2)c(=O)n1Cc1ccccc1 [NPD-1246, 3-Benzyl-1-(4-(trifluoromethyl)benzyl)quinazoline-2,4(1H,3H)-dione]
- % Parent compound remaining upon incubation ([2]; 0 h): 100%
- % Parent compound remaining upon incubation ([2]; 0.25 h): 111%
- % Parent compound remaining upon incubation ([2]; 0.5 h): 111%
- % Parent compound remaining upon incubation ([2]; 1 h): 106%
- Worm killing (% of total) ([3]; 5 µM): 0%
- Worm killing (% of total) ([3]; 10 µM): 0%
- Worm killing (% of total) ([3]; 25 µM): 0%
- Worm killing (% of total) ([3]; 50 µM): 53%
- Worm killing (% of total) ([3]; 100 µM): 100%
- Worm killing (female worms) ([3]; female worms, 5 µM): 0
- Worm killing (female worms) ([3]; female worms, 10 µM): 0
- Worm killing (female worms) ([3]; female worms, 25 µM): 0
- Worm killing (female worms) ([3]; female worms, 50 µM): 57
- Worm killing (female worms) ([3]; female worms, 100 µM): 100
- EC50 ([3]; female worms, read-out: EC50 (worm killing, female worms)): 50 µM
- EC50 ([3]; male and female worms, read-out: EC50 (worm killing)): 50 µM
- Worm killing (male worms) ([3]; male worms, 5 µM): 0
- Worm killing (male worms) ([3]; male worms, 10 µM): 0
- Worm killing (male worms) ([3]; male worms, 25 µM): 0
- Worm killing (male worms) ([3]; male worms, 50 µM): 50
- Worm killing (male worms) ([3]; male worms, 100 µM): 100
- EC50 ([3]; male worms, read-out: EC50 (worm killing, male worms)): 50 µM
- Percentage of dead eggs compared to the infected untreated group [1, 6]: significant increase
- Reduction in intestinal tissue egg load (percentage change from infected control) [1, 6]: 18%
- Reduction in total worm burden (percentage change from infected control) ([1]; oral 20 mg/kg/day for 5 days with ABT 100 mg/kg/day): 24%
- % Parent compound remaining upon incubation ([4]; 0 h): 100%
- % Parent compound remaining upon incubation ([4]; 0.25 h): 66%
- % Parent compound remaining upon incubation ([4]; 0.5 h): 27%
- % Parent compound remaining upon incubation ([4]; 1 h): 8%
- Uncoupling ([5]; 5 µM): No
- Uncoupling ([5]; 10 µM): No
- Uncoupling ([5]; 25 µM, listed as NPD-1246 (1)): Uncoupling and Yes
- Reduction in number of eggs (%) ([5]; 50 µM): 100%
- Uncoupling ([5]; 50 µM, listed as NPD-1246 (1)): Uncoupling and Yes
- Reduction in number of eggs (%) ([5]; 100 µM): 100%
- Uncoupling ([5]; 100 µM, listed as NPD-1246 (1)): Uncoupling and Yes

— paper PMC7717570, “Deciphering the enzymatic target of a new family of antischistosomal agents bearing a quinazoline scaffold using complementary computational tools” (Journal of Enzyme Inhibition and Medicinal Chemistry, 2020)
